Laboratory results taken from US8486991B2, “Enantiomerically pure phosphoindoles as HIV inhibitors” (Idenix Pharmaceuticals, Inc., priority 2006, dated 2013).
Several values for one entry are separate records, joined by “and”; a condition that tells them apart may be missing. Identical values can stand only once. Entries after “also recorded” stand apart in the source; their conditions may differ. Like-named read-outs stand apart in the source and are kept apart here.

Experiments:
[1] = In vivo pharmacokinetics, monkeys; parameters: species or system monkey; details: for bioavailability: read-out: BA (absolute oral bioavailability); for concentration at 24 h: 5 mg/kg oral dose, read-out: plasma concentrations at 24 hours post-dose
Protocol: All animals received a single oral or intravenous dose of compound in either polyethylene glycol 400 (PEG400) or a mixture of 10% ethanol (EtOH), 10% dimethylacetamine (DMA) and 80% PEG400 at the indicated dose level. Plasma concentration data were acquired using sensitive and specific LC-MS/MS methods. Pharmacokinetic data from the toxicity study included aspects of gender differences, variability and exposure.
Blood samples (1.5-2.5 mL) were collected in heparinized tubes at 0 (pre-dose), 5 (IV only), 10, 20, 30 min, 1, 2, 4, 6, 8, 12 (PO only) and 24 hr after dosing. Plasma was separated and stored at −70° C. until analysis.
Concentrations of unlabeled compound I and compound III within plasma samples and excreta from rat, dog and monkey PK studies were identified through high performance liquid chromatographic (HPLC) methods that incorporated tandem mass spectrometric detection (LC-MS/MS).
The absolute oral bioavailability was determined in pharmacokinetic by comparison of AUC values of parent compound following single intravenous and oral doses of in rats (compound III only), dogs and monkeys.

[2] = Plasma protein binding by equilibrium dialysis, rat; type: in vitro ADME; details: for fraction unbound: rat, read-out: Percentage Plasma Protein Binding, Rats
Protocol: (§1) The in vitro plasma protein binding of compound I and compound III in rat, dog, monkey and human plasma was determined by equilibrium dialysis. Protein binding was assessed by equilibrium dialysis using rat, dog, monkey and human plasma. Samples were assayed by HPLC with LC-MS/MS detection. Plasma protein binding was high (>99%) for all species and for both compounds.

[3] = Compound depletion in hepatocytes, human; type: in vitro ADME; details: up to 2 hours; for t½, Compound Depletion in Hepatocytes, Human: 1 μM; for half-life at 1 μM: human, read-out: t½, Compound Depletion in Hepatocytes, Human
Protocol: Fresh hepatocytes were plated onto collagen-coated plates and exposed to test compounds at 1 μM for up to 2 hours. Tissue culture medium was assayed for compound depletion by LC/MS detection. Values in Table 23 represent independent experiments from 5 to 7 donors.

[4] = Plasma protein binding by equilibrium dialysis, monkey; type: in vitro ADME
Protocol: as §1

CYP2B6 = biological target: T1, CYP2B6 (Homo sapiens, UniProt P20813); assay: Recombinant CYP450 inhibition, fluorometric, CYP2B6; type: in vitro ADME; parameters: from tissue; host or cells: pooled human liver microsomes; details: read-out: percentage of inhibition at the highest concentration tested, CYP2B6
T1 sequence (P20813 1-491): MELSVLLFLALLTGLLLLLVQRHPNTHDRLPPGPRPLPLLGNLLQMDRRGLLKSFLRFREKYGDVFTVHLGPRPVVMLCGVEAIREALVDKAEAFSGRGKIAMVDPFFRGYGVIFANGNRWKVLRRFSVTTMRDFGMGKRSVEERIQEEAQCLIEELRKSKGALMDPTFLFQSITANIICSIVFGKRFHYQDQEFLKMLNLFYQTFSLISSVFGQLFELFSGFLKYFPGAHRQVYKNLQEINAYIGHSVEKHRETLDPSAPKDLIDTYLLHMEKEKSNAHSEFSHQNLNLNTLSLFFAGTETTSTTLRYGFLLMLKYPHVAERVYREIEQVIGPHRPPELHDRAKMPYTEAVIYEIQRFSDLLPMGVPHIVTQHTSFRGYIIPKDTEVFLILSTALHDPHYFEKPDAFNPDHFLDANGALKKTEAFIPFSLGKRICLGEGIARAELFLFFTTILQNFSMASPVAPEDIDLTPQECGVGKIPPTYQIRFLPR
Protocol: (§2) Compounds were assayed using recombinant human microsomal proteins with fluorometric substrates. Signal was measured with a Fusion plate reader utilizing the appropriate excitation and emission wavelength set to detect the specific metabolite: […]

[5] = In vitro half-life in liver microsomes, monkey; type: in vitro ADME; details: up to one hour, n=1
Protocol: In vitro metabolism was assessed using liver microsomes for all species. Compounds were incubated at 1 μM with liver microsomes for up to one hour. Reported half-lives greater than the total incubation time are extrapolated values. Extracts were assayed for disappearance of parent compound by LC-MS/MS detection.
Data represents one independent experiment conducted.

MT-4 cells = assay: Cellular cytotoxicity, 4 days, MTS, MT-4; details: for CC50: read-out: Average CC50 Values ± Standard Deviation, MT-4, Table 21, 4 days, MTS
Protocol: Following drug exposure for 4 days, cell viability was measured by MTS staining and CC50 values were determined. Drug concentrations ranged from 0.005 μM to 100 μM.
The preceding data, allows us to calculate selectivity index (SI) values, based on the ratio of CC50 to EC50 in MT-4 cells (the standard assay used in this work).

CYP3A4 = CYP3A4 (Homo sapiens, UniProt P08684); assay: Recombinant CYP450 inhibition, fluorometric, CYP3A4; type: in vitro ADME; parameters: from tissue; host or cells: pooled human liver microsomes
Protocol: as §2

CYP2C19 = CYP2C19 (Homo sapiens, UniProt P33261); assay: Human liver microsomal CYP450 inhibition, CYP2C19; details: for IC50, CYP2C19: human liver microsomes
Protocol: In addition, the type of inhibition was also evaluated.
Enzyme kinetic studies of cytochrome P450 isozyme inhibition were conducted using human liver microsomes.

[6] = tested on: EFV resistant, NNRTI resistant, NRTI and PI mutant HIV-1 viruses; type: cell-based; details: for activity against EFV resistant viruses compared with EFV: including double and triple mutants
CYP2D6 = CYP2D6 (Homo sapiens, UniProt P10635); assay: Recombinant CYP450 inhibition, fluorometric, CYP2D6; type: in vitro ADME; parameters: from tissue; host or cells: pooled human liver microsomes; details: read-out: percentage of inhibition at the highest concentration tested, CYP2D6
Protocol: as §2

[7] = tested on: CYP3A4 (activation of PXR in DPX2 cells); assay: CYP3A4 induction screen in DPX2 cells; type: cell-based, human; details: extent compared with rifampicine, mifepristone, androstanol
Description: The potential for in vitro induction of CYP3A4 was screened in DPX2 cells. The DPX2 cell line is a derivative of a human hepatocellular carcinoma cell line (HepG2) transformed with the human pregnane x receptor (PXR) and a reporter gene vector containing the enhancer region of CYP3A4. The potential for in vitro induction of CYP1A2 was screened in CYP1A2-DRE cells. The CYP1A2-DRE cell line is a stably transformed HepG2 cells with dioxin response elements (DRE) and reporter gene containing CYP1A2 promoter elements. The extent of CYP3A4 induction was determined by comparing the activation of PXR obtained with test article to that obtained with rifampicine (potent inducer), mifepristone (moderate inducer) and androstanol (weak inducer). The extent of CYP1A2 induction was determined by comparing the activation of the aryl hydrocarbon receptor (AhR) obtained with test article to that obtained with TCDD (potent inducer), omeprazole (moderate inducer), and 2-acetylaminofluorene (weak inducer).

Chain of CYP2C19 (P33261 whole entry): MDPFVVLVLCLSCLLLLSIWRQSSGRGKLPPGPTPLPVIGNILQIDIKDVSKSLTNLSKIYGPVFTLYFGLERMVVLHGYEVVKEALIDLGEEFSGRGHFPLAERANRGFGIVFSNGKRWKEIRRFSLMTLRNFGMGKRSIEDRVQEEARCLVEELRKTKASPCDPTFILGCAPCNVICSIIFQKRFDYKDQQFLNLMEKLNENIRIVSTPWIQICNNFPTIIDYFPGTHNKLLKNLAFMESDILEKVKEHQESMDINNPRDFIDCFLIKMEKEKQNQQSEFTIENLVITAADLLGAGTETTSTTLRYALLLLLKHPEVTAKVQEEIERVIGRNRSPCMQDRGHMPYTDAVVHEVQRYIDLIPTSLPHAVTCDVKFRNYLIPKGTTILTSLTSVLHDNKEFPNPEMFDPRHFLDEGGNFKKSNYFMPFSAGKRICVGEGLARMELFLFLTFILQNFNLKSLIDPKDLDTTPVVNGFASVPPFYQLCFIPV
Chain of CYP2D6 (P10635 whole entry): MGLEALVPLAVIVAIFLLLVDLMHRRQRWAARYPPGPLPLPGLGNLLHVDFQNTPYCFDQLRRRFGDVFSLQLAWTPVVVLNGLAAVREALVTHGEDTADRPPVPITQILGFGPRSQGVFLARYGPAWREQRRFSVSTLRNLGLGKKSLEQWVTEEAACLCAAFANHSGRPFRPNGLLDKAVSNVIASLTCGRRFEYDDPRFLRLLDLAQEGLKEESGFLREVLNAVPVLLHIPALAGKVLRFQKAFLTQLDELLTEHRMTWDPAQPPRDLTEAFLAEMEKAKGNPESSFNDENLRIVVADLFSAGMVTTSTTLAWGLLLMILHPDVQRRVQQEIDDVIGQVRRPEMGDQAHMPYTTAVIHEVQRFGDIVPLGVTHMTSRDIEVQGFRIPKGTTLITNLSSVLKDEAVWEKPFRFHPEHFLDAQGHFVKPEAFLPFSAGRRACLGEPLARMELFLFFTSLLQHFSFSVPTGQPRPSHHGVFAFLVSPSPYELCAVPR
Chain of CYP3A4 (P08684 whole entry): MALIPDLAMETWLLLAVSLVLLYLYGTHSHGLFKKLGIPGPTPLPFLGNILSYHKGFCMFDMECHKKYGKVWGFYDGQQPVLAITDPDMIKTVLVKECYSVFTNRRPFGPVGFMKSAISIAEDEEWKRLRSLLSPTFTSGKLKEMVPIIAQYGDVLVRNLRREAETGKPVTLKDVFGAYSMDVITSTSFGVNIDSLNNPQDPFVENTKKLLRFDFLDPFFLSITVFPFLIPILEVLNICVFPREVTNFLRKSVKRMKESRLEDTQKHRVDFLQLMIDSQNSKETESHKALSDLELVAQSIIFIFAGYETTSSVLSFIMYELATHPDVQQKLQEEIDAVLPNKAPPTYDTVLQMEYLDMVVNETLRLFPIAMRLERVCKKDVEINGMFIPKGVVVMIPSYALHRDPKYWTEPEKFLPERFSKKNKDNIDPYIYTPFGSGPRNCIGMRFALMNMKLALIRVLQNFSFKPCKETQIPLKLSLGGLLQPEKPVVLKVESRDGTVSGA

For CO[P@](=O)(c1cc(C)cc(/C=C/C#N)c1)c1c(C(N)=O)[nH]c2ccc(Cl)c(F)c12 [Compound I, (2-Carbamoyl-5-chloro-4-fluoro-1H-indol-3-yl)-[3-((E)-2-cyano-vinyl)-5-methyl-phenyl]-(R)-phosphinic acid methyl ester], the “bioavailability in males based on AUC values, excluding one animal” value ([1]; Monkey, 5 mg/kg oral) was 75%, the Tmax ([1]; female, monkey, in vivo, po, 5 mg/kg, 5 mg/kg PO-Fed, 3F, median) was 4 h and the bioavailability ([1]; female, monkey, in vivo, po, 5 mg/kg, Monkey, 5 mg/kg PO-Fed, 3F (females)) was 61%. It also gave a concentration at 24 h ([1]; in vivo, monkey) of 17.9 ng/mL, a Tmax ([1]; male, monkey, in vivo, po, 5 mg/kg, 5 mg/kg PO-Fed, 3M, median) of 4 h and a Tmax ([1]; male, monkey, in vivo, po, 5 mg/kg, 5 mg/kg PO-Fed, males (3M or 2M), mean) of 2.7 h. For the same compound, the bioavailability ([1]; male, monkey, in vivo, po, 5 mg/kg, Monkey, 5 mg/kg PO-Fed, 3M (males)) was 54%, the bioavailability ([1]; male, monkey, in vivo, po, 5 mg/kg, Monkey, 5 mg/kg PO-Fed, males (3M or 2M), exploratory study) was 58% and the “Percentage Plasma Protein Binding, Rats” value [2] was 99.1%. For the same compound, the fraction unbound ([2]; plasma) was less than 0.01, the “t½, Compound Depletion in Hepatocytes, Human” value [3] was “limited in vitro metabolism” and the half-life at 1 μM ([3]; hepatocytes) was 215 ± 48 min. For the same compound, the “Percentage Plasma Protein Binding, Monkeys” value [4] was 99.9%, the inhibition at 20 µM (CYP2B6; recombinant enzyme) was 21.6% and the half-life at 1 μM ([5]; microsomes) was 15.4 min. For the same compound, the “Selectivity Index (SI), CC50/EC50 in MT-4 cells” value (MT-4 cells) was > 18,000 and > 22,000, the CC50 (MT-4 cells) was 18.6 ± 3.1 µM and the IC50 (CYP3A4) was 1460 ± 390 nM. The IC50 (CYP2C19) was 10.2 µM, the “IC50, CYP2C19” value (CYP2C19) was “not observed” and the “activity against sub-panel of mutants bearing NRTI and PI mutations” value [6] was “highly active”. The “potency relative to Compound III against EFV resistant viruses with double and triple mutants” value [6] was 2-3, the “activity against EFV resistant viruses compared with EFV” value [6] was “superior to EFV” and the inhibition at 10 µM (CYP2D6; recombinant enzyme) was 11.2%. The “Induction, DPX2 (CYP3A4)” value [7] was “moderate inducers; also recorded: Moderate (n = 2)”.

In the case of CO[P@](=O)(c1cc(C)cc(/C=C/C#N)c1)c1c(C(N)=O)[nH]c2ccc(Cl)cc12 [Compound III, (2-Carbamoyl-5-chloro-1H-indol-3-yl)-[3-((E)-2-cyano-vinyl)-5-methyl-phenyl]-(R)-phosphinic acid methyl ester], the Tmax ([1]; female, monkey, plasma, po, 5 mg/kg, 5 mg/kg PO-Fed, 3F, median) is reported as 2 h, the bioavailability ([1]; female, plasma, Monkey, 5 mg/kg PO-Fed, 3F (females)) is reported as 76% and the Tmax ([1]; male, monkey, plasma, po, 5 mg/kg, 5 mg/kg PO-Fed, 3M, median) is reported as 2 h. For the same compound, the Tmax ([1]; male, monkey, plasma, po, 5 mg/kg, 5 mg/kg PO-Fed, males (3M or 2M), mean) was 3 h, the Tmax ([1]; male, monkey, plasma, po, 20 mg/kg, 20 mg/kg PO-Fed, 2M, mean) was 2.5 h and the bioavailability ([1]; male, plasma, Monkey, 5 mg/kg PO-Fed, 3M (males)) was 42%. The bioavailability ([1]; male, plasma, Monkey, 20 mg/kg PO-Fed, 2M) was 61%, the concentration at 24 h ([1]; plasma, monkey) was 12 ng/mL and the “Percentage Plasma Protein Binding, Rats” value [2] was 99.4%. The fraction unbound ([2]; rat plasma) was less than 0.01, the “t½, Compound Depletion in Hepatocytes, Human” value [3] was “limited in vitro metabolism” and the half-life at 1 μM ([3]; fresh hepatocytes plated on collagen-coated plates) was 125 ± 55 min. For the same compound, the “Percentage Plasma Protein Binding, Monkeys” value [4] was 99.9%, the inhibition at 20 µM (CYP2B6; recombinant human CYP2B6 microsomal protein) was 22.9% and the half-life at 1 μM ([5]; liver microsomes) was 12.6 min. The “Selectivity Index (SI), CC50/EC50 in MT-4 cells” value (MT-4 cells) was > 22,000 and > 18,000, the CC50 (MT-4 cells) was 27.3 ± 12.9 µM and the IC50 (CYP3A4; recombinant, highest concentration tested 10 μM, read-out: IC50, CYP3A4) was 2860 ± 780 nM. The IC50 (CYP2C19) was 10.2 µM, the “IC50, CYP2C19” value (CYP2C19) was “not observed” and the “activity against sub-panel of mutants bearing NRTI and PI mutations” value [6] was “highly active”. The “activity against EFV resistant viruses compared with EFV” value [6] was “superior to EFV”, the inhibition at 10 µM (CYP2D6; recombinant human CYP2D6 microsomal protein) was 15.2% and the “Induction, DPX2 (CYP3A4)” value [7] was “moderate inducers; also recorded: Moderate (n = 2)”.
